Results taken from article PMC9706920, “Aryloxypropanolamine targets amyloid aggregates and reverses Alzheimer-like phenotypes in Alzheimer mouse models” (Alzheimer's Research & Therapy, 2022).

Experiments:
5XFAD mice = assay: Dot blot assay (6E10, A11) of soluble brain lysates of 5XFAD mice, incl. MWCO filtration; assay type: in vivo, mouse; conditions: 50 mg/kg/day, 5 weeks; for Total Aβ (6E10) in cortical lysates after GdnHCl denaturation and 100 kDa MWCO filtration: APP removed
Method: To test the in vivo efficacy of YIAD001 and YIAD002, female 5XFAD mice (n = 25) and female wildtype mice (n = 7) were assessed at the age of 4.5 months. YIAD compounds were dissolved in DMSO and diluted in drinking water to a final concentration of 50 mg/kg/day (5% DMSO, 5% Tween) for oral administration. The three compounds, YIAD001, YIAD002, and YIAD003, were freely administered via drinking water to 4.5-month-old 5XFAD mice (n = 6 for each group) for 5 weeks. As a control, 5% DMSO, 5% Tween in drinking water was provided ad libitum to littermate 5XFAD mice (n = 7) and wildtype mice (n = 7) for 5 weeks.
After the administration period, the mice were deeply anaesthetized with 4% avertin through intraperitoneal injection and transcardially perfused with 0.9% saline. Subsequently, the mice were sacrificed for brain excision. Each collected brain was divided through the mid-sagittal section; the hippocampal and cortical regions were dissected from one half and stored at −80°C for subsequent brain lysates, while the other half was immersed in 4% paraformaldehyde (pH 7.4) for 24 h and 30% sucrose for 48 h at 4°C and subsequently deep-froze at −80°C for immunohistochemistry.
Isolated cortical and hippocampal tissue samples were homogenized in ice-cold RIPA buffer with protease inhibitor cocktail and phosphatase inhibitor cocktail. Lysed tissues were incubated in ice for 30 min and subsequently centrifuged at 14,000 rpm at 4°C for 30 min. The supernatants of the brain lysates were collected and soluble protein concentrations were quantified with the Pierce BCA protein assay kit (Thermo Fisher Scientific, USA).
To analyze total and oligomeric amyloid levels, protein samples (12 μg in 2 μL) and prepared in vitro disaggregation assay samples (2 μL) were directly blotted on nitrocellulose membranes. After blocking with 5% skim milk in TBS-T, the membranes were probed with anti-6E10 antibody (1:1,000, Biolegend 803003) and anti-A11 antibody (1:2000, Invitrogen AHB0052) at 4°C overnight. HRP-conjugated goat anti-mouse antibody (1:10,000, Bethyl Laboratories A90-116P) and anti-rabbit secondary antibody (1:10,000, Bethyl Laboratories A120-101P) were used for 6E10 and A11, respectively. Proteins were detected using an ECL kit (Thermo Fisher Scientific, USA). Membranes were washed with TBS-T in between steps, three times for 10 min.
To exclusively investigate soluble Aβ levels in cortical lysates, guanidinium hydrochloride (GdnHCl) in a lysis buffer (5.0 M GdnHCl, 50 mM Tris-HCl, pH 8.0) was utilized to solubilize and denature endogenous Aβ aggregates prior to filtration. The homogenates were incubated with agitation for 3 h at RT. The incubated samples were then quantified to prepare protein samples (10 μg in 4 μL) and were filtered through a 100 kDa molecular weight cut-off (MWCO) filter, centrifuged at 14,000 rpm at RT for 30 min, to remove APP. For subsequent dot blot assay, total […] of the filtrate was spotted onto a nitrocellulose membrane and probed with anti-6E10 antibody (1:1000, Biolegend 803003).

CYP 3A4 = biological target: T1, CYP 3A4 (Homo sapiens, UniProt P08684); assay: CYP450 inhibition assay, 3A4; assay type: in vitro ADME; conditions: YIAD002 10 μM, human liver microsomes; weak or no inhibition; read-out: CYP 3A4 inhibition, IC50 (inhibition criteria)
T1 construct: contained human liver microsomes (0.25 mg/ml); from tissue; host or cells: human liver microsomes
Method: Incubation mixtures for Cytochrome P450s (CYPs) inhibition assay contained human liver microsomes (0.25 mg/ml), 0.1 M phosphate buffer (pH 7.4), 10 μM of YIAD002, and an enzyme substrate cocktail (phenacetin 50 μM, diclofenac 10 μM, S-mephenytoin 100 μM, dextromethorphan 5 μM, and midazolam 2.5 μM). The mixture was pre-incubated at 37°C for 5 min and 1 mM NAPDH was added to initiate reactions. After 15 min of incubation, acetonitrile with terfenadine was added to stop reactions and microsomal solutions were centrifuged at 14,000 rpm at 4°C for 5 min. For LC-MS/MS analysis, supernatants were injected on a Kinetex C18 column (2.1 × 100 mm, 2.6 μm particle size, Phenomenex, USA). The composition of the mobile phase was 0.1% formic acid in water (A) and 0.1% formic acid in acetonitrile (B).

[1] = Microsomal stability, rat; assay type: in vitro ADME; conditions: 1 μM, 30 min, 37°C
Method: To evaluate the rate of drug metabolism, we tested YIAD002 stability in liver microsomes of human, rat, and mouse. Microsomal concentration was 0.5 mg/ml in 0.1 M phosphate buffer (pH 7.4). 1 μM of YIAD002 was added to microsome solutions and was prewarmed at 37°C for 5 min. NADPH-regenerating solution was added to microsomes and incubated at 37°C for 30 min. At the end of incubation, acetonitrile with chlorpropamide was added to stop reactions and microsomal solutions were centrifuged at 14,000 rpm at 4°C for 5 min. For LC-MS/MS analysis, supernatants were injected on a Kinetex C18 column (2.1 × 100 mm, 2.6 μm particle size, Phenomenex, USA). The composition of the mobile phase was 0.1% formic acid in water (A) and 0.1% formic acid in acetonitrile (B).

[2] = biological target: T2, Aβ-Aβ interactions (Aβ(1–42) fragments) (Homo sapiens, UniProt P05067); assay: Mapping assay of Aβ(1–42) with peptide fragments; assay type: biochemical; conditions: YIAD002 500 μM, 24 h, Flamma 552-labeled Aβ(1–42) 10 μM, compared to full-length Aβ(1–42) control
T2 construct: we added monomeric Aβ(1–42) (10 μM) labeled with fluorescent dye Flamma 552 to each well
Method: Aβ fragments made up of six overlapping amino acid residues and a cysteine residue at the C-terminal were acquired by Fmoc solid phase peptide synthesis as previously described. Full length Aβ(1–42) with an additional cysteine residue at the C-terminal was used for comparison. The peptides were dissolved in DMSO ([…]) and diluted in binding buffer (0.1 M sodium phosphate, 0.15 M sodium chloride, 10 mM EDTA; pH 7.2) to prepare 50 μg/mL peptide solutions. To immobilize the Aβ fragments and monomers to maleimide-activated microplates, 100 μL of peptide solutions (50 μg/mL) was added and incubated at RT for 2 h while shaking. Cysteine solution (10 μg/mL with binding buffer) was added to cap unreacted maleimide groups. […] To define the fluorescence baseline for each well, fluorescence intensity was measured at 555 (excitation) and 580 (emission). YIAD002 (500 μM in binding buffer, 7.5% DMSO) was added to each well and incubated at RT for 24 h while shaking. Fluorescence intensity was remeasured at 555 (excitation) and 580 (emission) and baseline fluorescence was subtracted to quantify the change in fluorescence intensity caused by YIAD002. The plate was washed with 200 μL of wash buffer (0.1 M sodium phosphate, 0.15 M sodium chloride, 0.05% Tween®-20 Detergent; pH 7.2) per well three times in between steps.

[3] = Observation of adverse effects in the current studies

T1 sequence (P08684 whole entry): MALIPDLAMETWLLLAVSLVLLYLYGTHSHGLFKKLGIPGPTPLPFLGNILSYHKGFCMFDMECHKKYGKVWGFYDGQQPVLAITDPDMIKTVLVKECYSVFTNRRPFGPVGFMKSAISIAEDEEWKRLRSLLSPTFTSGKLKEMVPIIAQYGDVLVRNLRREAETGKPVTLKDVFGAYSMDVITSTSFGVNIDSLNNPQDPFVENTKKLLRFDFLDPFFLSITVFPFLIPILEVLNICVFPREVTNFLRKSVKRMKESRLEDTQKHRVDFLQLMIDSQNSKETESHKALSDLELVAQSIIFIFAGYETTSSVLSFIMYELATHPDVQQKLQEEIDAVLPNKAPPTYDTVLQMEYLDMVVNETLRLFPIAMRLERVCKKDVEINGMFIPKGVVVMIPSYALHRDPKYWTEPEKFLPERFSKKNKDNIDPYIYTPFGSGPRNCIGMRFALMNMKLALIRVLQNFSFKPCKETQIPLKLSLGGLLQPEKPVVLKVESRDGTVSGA
T2 sequence (P05067 672-713): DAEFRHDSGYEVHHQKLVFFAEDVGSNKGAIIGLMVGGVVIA

| Structure (SMILES) | Total Aβ (6E10) in cortical lysates after GdnHCl denaturation and 100 kDa MWCO filtration (5XFAD mice) | 6E10-detected total Aβ, cortical lysates (5XFAD mice; soluble fraction) | 6E10-detected total Aβ, hippocampus (5XFAD mice; soluble fraction) | A11-detected oligomer levels, cortical lysates (5XFAD mice; soluble fraction) | Oligomeric Aβ content (A11), hippocampus (5XFAD mice; soluble fraction) | IC50 (CYP 3A4) [µM] | Remaining compound in rat microsomes [1] [%] | Dissociation of Aβ-Aβ interactions at immobilised Aβ fragments [2] | Adverse effects of toxicity [3] |
| --- | --- | --- | --- | --- | --- | --- | --- | --- | --- |
| CCC(C)(C)c1ccc(OCC(O)CN2CCOCC2)c(C(C)(C)CC)c1.Cl (stereo not shown) [YIAD001, 4-(3-(2,4-Di-tert-pentylphenoxy)-2-hydroxypropyl)morpholin-4-ium chloride] | reduction of Aβ | significantly reduced | not significantly changed | trend of reduction | – | – | – | – | – |
| CCC(C)(C)c1ccc(OCC(O)CN2CCCC2)c(C(C)(C)CC)c1.Cl (stereo not shown) [YIAD002, 1-(3-(2,4-Di-tert-pentylphenoxy)-2-hydroxypropyl)pyrrolidin-1-ium chloride] | reduction of Aβ | significantly reduced | not significantly changed | trend of reduction | significantly reduced | > 10 | 11.2 | markedly dissociated Aβ-Aβ interactions at residues Aβ(16–21), KLVFFA, and Aβ(32–37), IGLMVG | not observed |
